Test results taken from US5175290A, “8-(oxo-substituted cycloalkyl)xanthines” (Marion Merrell Dow Inc., priority 1988, dated 1992).
Where two headings read alike, the source gives them in different places.

Columns and labels:
[1] = tested on: basal heart rate and basal blood pressure; assay: Cardiovascular effects (basal heart rate and basal blood pressure) in guinea pigs; assay type: in vivo, guinea pig; conditions: i.v., at 2 × histamine-reversal ED50, * = not significant
Description: Cardiovascular effects (basal heart rate and basal blood pressure) in guinea pigs
Male guinea pigs were anesthetized with urethane and the carotid artery and jugular vein were cannulated. Aortic blood pressure was recorded from a pressure transducer and the signal was integrated to give a heart rate signal.
Each animal received a single intravenous injection of one compound. The dose of each compound was based upon the ED50 value from the reversal of histamine-induced bronchoconstriction in the anesthetized guinea pig. Thus the various compounds were studied at equipotent bronchodilator doses (2×ED50). A group of control animals received injections of vehicle only. Changes in heart rate and blood pressure from pre-injection baseline values produced by drugs or vehicle were compared.

[2] = tested on: pentobarbital-induced heart failure; assay: Pentobarbital-induced heart failure in rats; assay type: in vivo, rat (Sprague-Dawley); conditions: for ED40: Rattus norvegicus, iv; for heart rate, maximum recovery dose: bracketed value under RD40 heart rate
Description: Adult male Sprague-Dawley rats (350-450 g) were used in this example. Animals were anesthetized using sodium pentobarbital (40-50 mg/kg, i.p.) and placed supine on a heated (37° C.) surgical table. A 7F pressure tipped catheter (Millar) was inserted into the left carotid artery and advanced into the left ventricle of the heart to measure left ventricular pressure (LVP), dP/dt and heart rate (HR). Mean arterial blood pressure (MABP) was monitored via a PE-50 catheter placed into a femoral artery. The right jugular vein and a femoral vein were catheterized with PE-10 tubing for infusion of the test compounds and pentobarbital, respectively.
Following bilateral cervical vagotomy, a 15 gauge blunt needle was inserted into the trachea via a midcervical tracheostomy to ventilate the animals (60/minute, TV=2.3 mL) Each animal was allowed a 5-10 minute period to stabilize and control measurements were recorded. A dose of 60-70 mg/kg of pentobarbital wa then administered slowly over a 5 minute period via the femoral vein until MABP was stabilized at 60 mm Hg, at which time an infusion of 0.2 mg/kg/minute of pentobarbital was begun and continued throughout the experiment. Each animal was then allowed 10-15 minutes to stabilize and values representing heart failure were recorded. Control and test compounds were tested in a cumulative-dose manner using at least four doses. Dose-related effects, e.g., dP/dt and MABP were continually monitored during a 15 minute recovery period between each dose. At the time of the peak dP/dt response during each recovery period, values for all four variables were recorded. The animals were sacrificed using a lethal injection of pentobarbital 15 minutes following the last dose of the test compound. Only one compound was administered to each animal.
The RD40 is defined as the dose of compound required to achieve a 40% recovery in the variable (dP/dt, MABP) being measured. It was calculated for each compound using an SAS® probit analysis on a Vax computer. Briefly, the program transforms the dose into log 10 and calculates the line of least squares using the mean value for recovery at each dose. In most instances the RD40 was then extrapolated, but in those instances where a full dose-response curve was not achieved because of the limited solubility of the compound, the RD40 was estimated.

[3] = tested on: histamine-induced bronchoconstriction; assay: Reversal of histamine-induced bronchoconstriction in the anesthetized guinea pig; assay type: in vivo; conditions: guinea pigs; for ED50: Cavia porcellus, iv, dose required to reverse the histamine response by 50%; for maximum effect (maximum percent reversal of histamine-induced bronchoconstriction): i.v.
Description: Reversal of histamine-induced bronchoconstriction in the anesthetized guinea pig
A modification of the general method of H. Konzett and R. Rossler [Naunyn-Schmiedeberg's Arch. Pharmakol.
Male Duncan-Hartley guinea pigs (400-600) were anesthetized using an intratraperitoneal injection of urethane (1.5 g/kg). After the neck area was shaved, the animal was placed in the dorsal recumbent position on a Narco temperature controlled surgical board (37° C.) to maintain body temperature. Following a midline neck incision, the carotid artery and jugular vein were cannulated using PE50 polyethylene tubing. Both catheters were flushed with heparinized saline (20 U/mL) to prevent clotting. The trachea was then cannulated using a 15 gauge Leuer stub and was connected to a Harvard Apparatus small animal respirator. The animal was ventilated at a constant rate and volume (52 breaths/minute and 1 mL room air/[…] body weight). Airway pressure was measured using a Statham pressure transducer connected to the side port of the tracheal cannula. The arterial blood pressure was measured using a Statham pressure transducer connected to the carotid artery. Both transducers were connected to a Gould chart recorder to produce the desired physiographs.
After allowing the animal to stabilize for 10 minutes, aerosolized histamine (0.01%) was delivered to the airways using a DeVilbiss ultrasonic nebulizer connected in-line between the respirator and the guinea pig. After the maximum bronchoconstriction was reached, as evidenced by a maximum plateau in airway pressure, an injection of vehicle (0.6 mL) was administered via the jugular vein. […] At the end of the experiment, terbutaline sulfate (1 mg/mL), a beta agonist, was injected i.v. to determine if further bronchodilation could be achieved The nebulizer was then turned off and the minimum airway pressure was recorded to determine the final baseline pressure.
ED50 (mg/kg) values and maximum effect (%) were calculated using SAS and PROBIT computer analyses. […] The maximum effect is the maximum percent reversal of histamine-induced bronchoconstriction produced by the test compound.

[4] = bronchial asthma; cited from earlier work
[5] = tested on: A1 and A2 adenosine receptors; conditions: A1 versus A2; cited from earlier work
[6] = cited from earlier work
[7] = tested on: responses to adenosine; conditions: all tissues studied, except rat hippocampus; cited from earlier work
[8] = rats, i.v., dose for 40% recovery in dP/dt, extrapolated or estimated by probit, read-out: RD40, dP/dt
[9] = rats, i.v., extrapolated or estimated by probit, read-out: RD40, heart rate

| Compound | Basal blood pressure [1] [%] | Basal heart rate [1] [%] | ED40 [2, 8] [mg/kg] | ED40 [2, 9] [mg/kg] | dP/dt, maximum recovery ([2]; rats, i.v.) [%] | heart rate, maximum recovery dose ([2]; rats, i.v.) [mg/kg] | ED50 [3] [mg/kg] | maximum effect (maximum percent reversal of histamine-induced bronchoconstriction) [3] [%] | vital capacity [4] | effectiveness in displacing ligands from both the A1 and A2 adenosine receptors [5] | cardiac stimulation ([6]; in vivo) | perfusion of organs ([6]; in vivo) | peripheral vascular resistance ([6]; in vivo) | heart rate ([6]; therapeutic doses, effect short-lived in man) | ED40 ([2]; read-out: RD40, dP/dt) [mg/kg] | ED40 ([2]; read-out: RD40, heart rate) [mg/kg] | effectiveness in diminishing responses to adenosine [7] |
| --- | --- | --- | --- | --- | --- | --- | --- | --- | --- | --- | --- | --- | --- | --- | --- | --- | --- |
| CCCn1c(=O)c2[nH]c([C@H]3CC[C@@H](O)C3)nc2n(CCC)c1=O (relative stereo) [cis, cis-8-(3-hydroxycyclopentyl)-1,3-dipropylxanthine] | 90 ± 5 | 106 ± 3 | 17.7 | 120 | 53 | 20 | 14.1 ± 3.6 | 72.8 ± 6.8 | – | – | – | – | – | – | – | – | – |
| Cn1c(=O)c2[nH]cnc2n(C)c1=O [Theophylline] | 66 ± 8 | 132 ± 4 | – | – | 50 | 50 | 35.1 ± 5.3 | 72.8 ± 6.6 | demonstrable increase in vital capacity | about equally effective | sometimes powerful cardiac stimulation | increased perfusion of most organs | modest decreases in peripheral vascular resistance | modest increases in heart rate | 18 | 94 | – |
| Nc1cc(-c2ccncc2)c[nH]c1=O [Amrinone] | – | – | 4.12 | 77 | 63 | 10 | – | – | – | – | – | – | – | – | – | – | – |
| CCCn1c(=O)c2[nH]c([C@H]3CC[C@H](O)C3)nc2n(CCC)c1=O (relative stereo) [trans, trans-8-(3-hydroxycyclopentyl)-1,3-dipropylxanthine] | 96 ± 8 | 107 ± 5 | 7.8 | 3.1 | 71 | 120 | 11.6 ± 1.6 | 78.5 ± 4.0 | – | – | – | – | – | – | – | – | – |
| CCCn1c(=O)c2[nH]c(C3CCC(O)C3)nc2n(CCC)c1=O (mixture of isomers) [cis/trans] | 65 ± 3 | 86 ± 4 | 19 | 20 | 30 | 30 | 20.3 ± 4.6 | 64.0 ± 4.8 | – | – | – | – | – | – | – | – | – |
| CCCn1c(=O)[nH]c(=O)c2[nH]cnc21 [Enprofylline, 3-propylxanthine] | 76 ± 10 | 120 ± 6 | 48 | 93 | 30 | 50 | 13.1 ± 3.1 | 84.8 ± 3.6 | – | – | – | – | – | – | – | – | much less effective than theophylline |
| Cn1c(=O)c2c(ncn2C)n(C)c1=O [caffeine] | – | – | – | – | – | – | – | – | – | about equally effective | – | – | – | – | – | – | – |
